Test results reported in patent US7745636B2, “Hepatitis C virus inhibitors” (Bristol-Myers Squibb Company, priority 2006, dated 2010).

System: HCV 1b-377-neo replicon cells
Assay: HCV Replicon assay, HCV 1b-377-neo replicon cells
Format: cell-based, HCV 1b genotype
Details: Hepatitis C virus, Table 2, read-out: Range (EC50 against HCV 1b)

## COC(=O)N[C@@H](C(=O)N[C@@H](C)c1ncc(-c2cnc(-c3ccc(-c4cnc([C@@H]5CCCN5C(=O)[C@H](NC(=O)OC)c5ccccc5)[nH]4)cc3)cn2)[nH]1)c1ccccc1 [Example 152j-19, methyl ((1R)-2-((2S)-2-(5-(4-(5-(2-((1S)-1-(((2R)-2-((methoxycarbonyl)amino)-2-phenylace-tyl)amino)eth-yl)-1H-imidazol-5-yl)-2-pyrazinyl)phenyl)-1H-imidazol-2-yl)-1-pyrrolidinyl)-2-oxo-1-phenylethyl)carbamate]
  EC50: 0.001 to 0.999 nM

## C[C@@H](c1ncc(-c2ccc(-c3ncc(-c4cnc([C@@H]5CCCN5C(=O)[C@@H](c5ccccc5)N(C)C)[nH]4)cn3)cc2)[nH]1)N(C)C(=O)[C@@H](c1ccccc1)N(C)C [Example 152j-20, (2R)-2-(dimethylamino)-N-((1S)-1-(5-(4-(5-(2-((2S)-1-((2R)-2-(dimethylamino)-2-phenylacetyl)-2-pyrrolidinyl)-1H-imidazol-5-yl)-2-pyrimidinyl)phenyl)-1H-imidaozl-2-yl)ethyl)-N-methyl-2-phenylacetamide]
  EC50: 1 to 99 nM

## COC(=O)N[C@@H](C(=O)N(C)[C@@H](C)c1ncc(-c2ccc(-c3ncc(-c4cnc([C@@H]5CCCN5C(=O)[C@H](NC(=O)OC)c5ccccc5)[nH]4)cn3)cc2)[nH]1)c1ccccc1 [Example 152j-21, methyl ((1R)-2-((2S)-2-(5-(2-(4-(2-((1S)-1-(((2R)-2-((methoxycarbonyl)amino)-2-phenylacetyl)(methyl)amino)ethyl)-1H-imidazol-5-yl)phenyl)-5-pyrimidinyl)-1H-imidazol-2-yl)-1-pyrrolidinyl)-2-oxo-1-phenylethyl)carbamate]
  EC50: 0.001 to 0.999 nM

## COC(=O)N[C@@H](C(=O)N[C@@H](C)c1ncc(-c2ccc(-c3ccc(-c4cnc([C@@H]5CCCN5C(=O)[C@H](NC(=O)OC)c5ccccc5)[nH]4)cc3)nc2)[nH]1)c1ccccc1 [Example 152j-22, methyl ((1R)-2-((2S)-2-(5-(4-(5-(2-((1S)-1-(((2R)-2-((methoxycarbonyl)amino)-2-phenylace-tyl)amino)eth-yl)-1H-imidazol-5-yl)-2-pyridinyl)phenyl)-1H-imidazol-2-yl)-1-pyrrolidinyl)-2-oxo-1-phenylethyl)carbamate]
  EC50: 0.001 to 0.999 nM

## COC(=O)N[C@@H](C(=O)N[C@@H](C)c1ncc(-c2ccc(-c3ccc(-c4cnc([C@H](C)NC(=O)[C@H](NC(=O)OC)c5ccccc5)[nH]4)cn3)cc2)[nH]1)c1ccccc1 [Example 152j-23, methyl ((1R)-2-(((1S)-1-(5-(6-(4-(2-((1S)-1-(((2R)-2-((methoxycarbonyl)amino)-2-phenylace-tyl)amino)eth-yl)-1H-imidazol-5-yl)phenyl)-3-pyridinyl)-1H-imidazol-2-yl)ethyl)amino)-2-oxo-1-phenylethyl)carbamate]
  EC50: 0.001 to 0.999 nM

## C[C@H](NC(=O)[C@@H](c1ccccc1)N(C)C)c1ncc(-c2ccc(-c3ccc(-c4cnc([C@H](C)NC(=O)[C@@H](c5ccccc5)N(C)C)[nH]4)cn3)cc2)[nH]1 [Example 152j-24, (2R)-2-(dimethylamino)-N-((1S)-1-(5-(6-(4-(2-((1S)-1-(((2R)-2-(dimethylamino)-2-phenylace-tyl)amino)eth-yl)-1H-imidazol-5-yl)phenyl)-3-pyridinyl)-1H-imidazol-2-yl)ethyl)-2-phenylacetamide]
  EC50: 0.001 to 0.999 nM

## COC(=O)N[C@@H](C(=O)N[C@@H](C)c1ncc(-c2ccc(-c3cnc(-c4cnc([C@@H]5CCCN5C(=O)[C@H](NC(=O)OC)c5ccccc5)[nH]4)cn3)cc2)[nH]1)c1ccccc1 [Example 152j-28, methyl ((1R)-2-((2S)-2-(5-(5-(4-(2-((1S)-1-(((2R)-2-((methoxycarbonyl)amino)-2-phenylace-tyl)amino)eth-yl)-1H-imidazol-5-yl)phenyl)-2-pyrazinyl)-1H-imidazol-2-yl)-1-pyrrolidinyl)-2-oxo-1-phenylethyl)carbamate]
  EC50: 0.001 to 0.999 nM

## COC(=O)N[C@@H](C(=O)N(C)[C@@H](C)c1ncc(-c2ccc(-c3ncc(-c4cnc([C@@H]5CCCN5C(=O)[C@@H](c5ccccc5)N5CCCCC5)[nH]4)cn3)cc2)[nH]1)c1ccccc1 [Example 152l-1, methyl ((1R)-2-(methyl((1S)-1-(4-(4-(5-(2-((2S)-1-((2R)-2-phenyl-2-(1-piperidinyl)acetyl)-2-pyrrolidinyl)-1H-imidazol-5-yl)-2-pyrimidinyl)phenyl)-1H-imidazol-2-yl)ethyl)amino)-2-oxo-1-phenylethyl)carbamate]
  EC50: 0.001 to 0.999 nM

## COC(=O)N[C@@H](C(=O)N[C@@H](C)c1ncc(-c2ccc(-c3ncc(-c4cnc([C@@H]5CCCN5C(=O)[C@@H](c5ccccc5)N5CCCCC5)[nH]4)cn3)cc2)[nH]1)c1ccccc1 [Example 152l-2, methyl ((1R)-2-oxo-1-phenyl-2-(((1S)-1-(4-(4-(5-(2-((2S)-1-((2R)-2-phenyl-2-(1-piperidinyl)acetyl)-2-pyrrolidinyl)-1H-imidazol-5-yl)-2-pyrimidinyl)phenyl)-1H-imidazol-2-yl)ethyl)amino)ethyl) carbamate]
  EC50: 0.001 to 0.999 nM

## COC(=O)N[C@@H](C(=O)N1CCC[C@H]1c1ncc(-c2ccc(-c3ncc(-c4cnc([C@@H]5CCCN5C(=O)[C@@H](c5ccccc5)N5CCCCC5)[nH]4)cn3)cc2)[nH]1)c1ccccc1 [Example 152l-3, methyl ((1R)-2-oxo-1-phenyl-2-((2S)-2-(4-(4-(5-(2-((2S)-1-((2R)-2-phenyl-2-(1-piperidinyl)acetyl)-2-pyrrolidinyl)-1H-imidazol-5-yl)-2-pyrimidinyl)phenyl)-1H-imidazol-2-yl)-1-pyrrolidinyl)ethyl) carbamate]
  EC50: 0.001 to 0.999 nM

## CN(C)[C@@H](C(=O)N1CCC[C@H]1c1ncc(-c2ccc(-c3ccc(-c4cnc([C@@H]5CCCN5C(=O)[C@@H](c5ccccc5)N(C)C)[nH]4)nn3)nn2)[nH]1)c1ccccc1 [Example 153c-1, (1R,1′R)-2,2′-(3,3′-bipyridazine-6,6′-diylbis(1H-imidazole-5,2-diyl(2S)-2,1-pyrrolidinediyl))bis(N, N-dimethyl-2-oxo-1-phenylethanamine)]
  EC50: 1 to 99 nM

## COC(=O)N[C@@H](C(=O)N1CCC[C@H]1c1ncc(-c2ccc(-c3ccc(-c4cnc([C@@H]5CCCN5C(=O)[C@H](NC(=O)OC)c5ccccc5)[nH]4)nn3)nn2)[nH]1)c1ccccc1 [Example 153c-2, dimethyl (3,3′-bipyridazine-6,6′-diylbis(1H-imidazole-5,2-diyl(2S)-2,1-pyrrolidinediyl((1R)-2-oxo-1-phenyl-2,1-ethanediyl))) biscarbamate]
  EC50: 1 to 99 nM

## CN(C)[C@@H](C(=O)N1CCC[C@H]1c1ncc(-c2cnc(-c3ncc(-c4cnc([C@@H]5CCCN5C(=O)[C@@H](c5ccccc5)N(C)C)[nH]4)cn3)nc2)[nH]1)c1ccccc1 [Example 153c-3, (1R,1′R)-2,2′-(2,2′-bipyrimidine-5,5′-diylbis(1H-imidazole-5,2-diyl(2S)-2,1-pyrrolidinediyl))bis(N, N-dimethyl-2-oxo-1-phenylethanamine)]
  EC50: 1000 to 10000 nM

## COC(=O)N[C@@H](C(=O)N1CCC[C@H]1c1ncc(-c2cnc(-c3ncc(-c4cnc([C@@H]5CCCN5C(=O)[C@H](NC(=O)OC)c5ccccc5)[nH]4)cn3)nc2)[nH]1)c1ccccc1 [Example 153c-4, dimethyl (2,2′-bipyrimidine-5,5′-diylbis(1H-imidazole-5,2-diyl(2S)-2,1-pyrrolidinediyl((1R)-2-oxo-1-phenyl-2,1-ethanediyl))) biscarbamate]
  EC50: 1000 to 10000 nM

## CN(C)[C@@H](C(=O)N1CCC[C@H]1c1ncc(-c2cnc(-c3cnc(-c4cnc([C@@H]5CCCN5C(=O)[C@@H](c5ccccc5)N(C)C)[nH]4)cn3)cn2)[nH]1)c1ccccc1 [Example 153c-5, (1R,1′R)-2,2′-(2,2′-bipyrazine-5,5′-diylbis(1H-imidazole-5,2-diyl(2S)-2,1-pyrrolidinediyl))bis(N, N-dimethyl-2-oxo-1-phenylethanamine)]
  EC50: 1 to 99 nM

## COC(=O)N[C@@H](C(=O)N1CCC[C@H]1c1ncc(-c2cnc(-c3cnc(-c4cnc([C@@H]5CCCN5C(=O)[C@H](NC(=O)OC)c5ccccc5)[nH]4)cn3)cn2)[nH]1)c1ccccc1 [Example 153c-6, dimethyl (2,2′-bipyrazine-5,5′-diylbis(1H-imidazole-5,2-diyl(2S)-2,1-pyrrolidinediyl((1R)-2-oxo-1-phenyl-2,1-ethanediyl))) biscarbamate]
  EC50: 1 to 99 nM

## COC(=O)N[C@@H](C(=O)N[C@@H](C)c1ncc(-c2ccc(-c3ccc(-c4cnc([C@H](C)NC(=O)[C@H](NC(=O)OC)c5ccccc5)[nH]4)cn3)nc2)[nH]1)c1ccccc1 [Example 153c-7, dimethyl (2,2′-bipyridine-5,5′-diylbis(1H-imidazole-5,2-diyl(1S)-1,1-ethanediylimino((1R)-2-oxo-1-phenyl-2,1-ethanediyl))) biscarbamate]
  EC50: 1 to 99 nM

## COC(=O)N[C@@H](C)C(=O)N1CCC[C@H]1c1nc(-c2cnc(-c3ccc(-c4cnc([C@@H]5CCCN5C(=O)[C@H](C)NC(=O)OC)[nH]4)c(F)c3)nc2)c[nH]1 [Example D67, methyl ((1S)-2-((2S)-2-(5-(2-fluoro-4-(5-(2-((2S)-1-(N-(methoxycarbonyl)-L-alanyl)-2-pyrrolidinyl)-1H-imidazol-5-yl)-2-pyrimidinyl)phenyl)-1H-imidazol-2-yl)-1-pyrrolidinyl)-1-methyl-2-oxoethyl)carbamate]
  EC50: 0.001 to 0.999 nM

## COC(=O)N[C@H](C(=O)N1CCC[C@H]1c1nc(-c2cnc(-c3ccc(-c4cnc([C@@H]5CCCN5C(=O)[C@@H](NC(=O)OC)C(C)C)[nH]4)c(F)c3)nc2)c[nH]1)C(C)C [Example D68, methyl ((1S)-1-(((2S)-2-(5-(2-fluoro-4-(5-(2-((2S)-1-((2S)-2-((methoxycarbonyl)amino)-3-methylbutanoyl)-2-pyrrolidinyl)-1H-imidazol-5-yl)-2-pyrimidinyl)phenyl)-1H-imidazol-2-yl)-1-pyrrolidinyl)carbonyl)-2-methylpropyl) carbamate]
  EC50: 0.001 to 0.999 nM
